Source: publication PMC11277489, “Novel Piperazine Derivatives of Vindoline as Anticancer Agents” (International Journal of Molecular Sciences, 2024)

Columns and labels:
[1] = system: SR; assay: NCI60 one-dose screen (10 μM), Leukemia; type: cell-based; settings: Homo sapiens, 10 μM, Leukemia, read-out: Growth percent rate
[2] = system: MDA-MB-468; assay: NCI60 one-dose screen (10 μM), Breast Cancer; type: cell-based; settings: Homo sapiens; 10 μM; MDA-MB-468, Breast Cancer; read-out: Growth percent rate
[3] = system: SNB-75; assay: NCI60 one-dose screen (10 μM), CNS Cancer; type: cell-based, human; settings: Homo sapiens; 10 μM; SNB-75, CNS Cancer; read-out: Growth percent rate
[4] = system: U251; assay: NCI60 one-dose screen (10 μM), CNS Cancer; type: cell-based; settings: Homo sapiens, U-251; 10 μM; U251, CNS Cancer; read-out: Growth percent rate
[5] = system: HOP-92; assay: NCI60 one-dose screen (10 μM), Non-small Cell Lung Cancer; type: cell-based; settings: Homo sapiens; 10 μM; HOP-92, Non-small Cell Lung Cancer; read-out: Growth percent rate
[6] = system: 60 human tumor cell lines (NCI60); assay: NCI60 one-dose screen (10 μM), whole panel; type: cell-based; settings: for activity at 10 µM: mean over 60 human cancer cell lines, read-out: Growth percent rate, Mean
[7] = system: NCI-H226; assay: NCI60 one-dose screen (10 μM), Non-small Cell Lung Cancer; type: cell-based; settings: Homo sapiens; 10 μM; NCI-H226, Non-small Cell Lung Cancer; read-out: Growth percent rate
[8] = system: NCI/ADR-RES; assay: NCI60 one-dose screen (10 μM), Ovarian Cancer; type: cell-based; settings: Homo sapiens, 10 μM, Ovarian Cancer, read-out: Growth percent rate
[9] = system: UO-31; assay: NCI60 one-dose screen (10 μM), Renal Cancer; type: cell-based; settings: Homo sapiens; 10 μM; UO-31, Renal Cancer; read-out: Growth percent rate
[10] = system: SK-OV-3; assay: NCI60 one-dose screen (10 μM), Ovarian Cancer; type: cell-based; settings: Homo sapiens; 10 μM; SK-OV-3, Ovarian Cancer; read-out: Growth percent rate
[11] = system: MDA-MB-231/ATCC; assay: NCI60 one-dose screen (10 μM), Breast Cancer; type: cell-based, human; settings: Homo sapiens; 10 μM; MDA-MB-231/ATCC, Breast Cancer; read-out: Growth percent rate
[12] = system: PC-3; assay: NCI60 one-dose screen (10 μM), Prostate Cancer; type: cell-based; settings: Homo sapiens; 10 μM; PC-3, Prostate Cancer; read-out: Growth percent rate
[13] = system: NCI-H460; assay: NCI60 one-dose screen (10 μM), Non-small Cell Lung Cancer; type: cell-based; settings: Homo sapiens; 10 μM; NCI-H460, Non-small Cell Lung Cancer; read-out: Growth percent rate
[14] = system: DU-145; assay: NCI60 one-dose screen (10 μM), Prostate Cancer; type: cell-based; settings: Homo sapiens; 10 μM; DU-145, Prostate Cancer; read-out: Growth percent rate
[15] = system: OVCAR-5; assay: NCI60 one-dose screen (10 μM), Ovarian Cancer; type: cell-based; settings: Homo sapiens; 10 μM; OVCAR-5, Ovarian Cancer; read-out: Growth percent rate
[16] = system: A498; assay: NCI60 one-dose screen (10 μM), Renal Cancer; type: cell-based; settings: Homo sapiens; 10 μM; A498, Renal Cancer; read-out: Growth percent rate
[17] = system: T-47D; assay: NCI60 one-dose screen (10 μM), Breast Cancer; type: cell-based; settings: Homo sapiens, T47D; 10 μM; T-47D, Breast Cancer; read-out: Growth percent rate
[18] = system: BT-549; assay: NCI60 one-dose screen (10 μM), Breast Cancer; type: cell-based; settings: Homo sapiens; 10 μM; BT-549, Breast Cancer; read-out: Growth percent rate
[19] = system: UACC-62; assay: NCI60 one-dose screen (10 μM), Melanoma; type: cell-based; settings: Homo sapiens; 10 μM; UACC-62, Melanoma; read-out: Growth percent rate

SMILES | activity at 10 µM [1] [%] | activity at 10 µM [2] [%] | activity at 10 µM [3] [%] | activity at 10 µM [4] [%] | activity at 10 µM [5] [%] | antiproliferative effect (in words) ([6]; 10 μM one-dose, NCI60) | activity at 10 µM [6] [%] | activity at 10 µM [7] [%] | activity at 10 µM [8] [%] | activity at 10 µM [9] [%] | activity at 10 µM [10] [%] | activity at 10 µM [11] [%] | activity at 10 µM [12] [%] | activity at 10 µM [13] [%] | activity at 10 µM [14] [%] | activity at 10 µM [15] [%] | activity at 10 µM [16] [%] | activity at 10 µM [17] [%] | activity at 10 µM [18] [%] | activity at 10 µM [19] [%]
CCC12C=CCN3CCC4(c5ccc(OC)cc5N(C)C4C(O)(C(=O)OC)C1OC(=O)CCCBr)C32 (stereo not drawn) [Compound 14, 17-(O-4-bromobutanoyl)vindoline] | 98.4 | 95.7 | 92.6 | 87.2 | 77.6 | a notable antiproliferative effect was not shown | 92.5 | 96 | 89.2 | 82.5 | 101 | 90.6 | 79 | 97.8 | 99.6 | 101 | 90.1 | 77.2 | 99.1 | 83.8
CC[C@]12C=CCN3CC[C@@]4(c5ccc(OC)cc5N(C)[C@H]4[C@@](O)(C(=O)OC)[C@@H]1OC(=O)CCC(=O)N1CCN(Cc4ccc(F)cc4)CC1)[C@@H]32 [Compound 30] | 56.4 | 1.38 | 64.5 | 71.6 | 66.4 | – | 71.4 | 69.9 | 65.2 | 62.3 | 103 | 65.3 | 44.5 | 83.4 | 82.6 | 96.3 | 110 | 73.8 | 98.1 | 67.1
